In patent US20250326755A1, “CYCLIC QUATERNARY AMMONIUM SALT COMPOUND, AND PREPARATION METHOD THEREFOR AND USE THEREOF” (YICHANG HUMANWELL PHARMACEUTICAL CO., LTD., priority 2022, published 2025):
Where two headings read alike, the source gives them in different places.

Experiments:
[1] = tested on: sciatic nerve of the rat; format: in vivo, SD rats
Procedure: The experimental methods described in the following test examples were standard procedures unless otherwise specified. All experimental animals used in the following test examples were SD rats purchased from Hunan Slac Jingda Experimental Animal Co., Ltd. Other test materials, unless stated otherwise, were purchased from conventional biochemical reagent suppliers.
The compounds listed in Table 1 and levobupivacaine hydrochloride (positive control) were administered to three groups of rats fully acclimated to the experimental environment, with one rat per group.
Solution Preparation: 2 mg/ml Levobupivacaine Hydrochloride Injection: 2.670 ml of 7.5 mg/ml levobupivacaine hydrochloride injection (Batch No. 92S0702) was pipetted into a 10 ml volumetric flask. 0.9% NaCl solution was added until the meniscus was level with the calibration line, and the solution was inverted and mixed thoroughly, to prepare 2 mg/ml levobupivacaine hydrochloride injection. 2 mg/ml Example Compound Solution: 6.6 mg of the example compound was accurately weighed and dissolved in 3.3 ml of 0.9% NaCl solution to prepare a 2 mg/ml example compound solution.
Both the positive control and the example compound were administered to each rat at 2 mg/ml, with an administration volume of 5 ml/kg, in a single injection near the sciatic nerve of the rat. After the administration, the rat was placed on a preheated hot plate (50±0.1° C.) of an intelligent hot plate instrument. […] The maximum thermal latency was controlled at 60 s. […] Any urine or feces on the hot plate was promptly cleaned and dried before subsequent tests.
Thermal latency results were expressed as the maximum proportional effect (MPE), calculated using the following formula.
Wherein: B represented the basal thermal latency of the rats; P was the maximum thermal latency C was the observed thermal latency at the detection time point.
Measurements were considered invalid if the MPE was less than 50% of the maximum proportional effect. If two consecutive measurements yielded an MPE of less than […], the experiment was terminated.

[2] = tested on: rat subcutaneous infiltration model; experiment: Local anesthetic effect by subcutaneous infiltration, Von Frey needle stimulation of back skin; format: in vivo, SD rats; conditions: 1 mg/ml, 0.5 mL subcutaneous injection on the back, 10 rats
Procedure: After shaving and disinfecting the backs of SD rats (half male and half female) weighing 190-210 grams, a circle with a diameter of approximately 1.5 cm was drawn on one side of the exposed skin. 0.5 mL of a solution containing the drug was subcutaneously injected into the skin in the center. The solution, using physiological saline as the solvent, contained either 2 mg/ml bupivacaine hydrochloride or 1 mg/ml concentration of the compounds listed in Table 2 of the present application. Each group consisted of 10 rats. A Von Frey fiber with a 100-gram force was attached to a needle for local skin stimulation. One minute after drug administration, the rat's response to the stimulus was measured. Testing was conducted at 6 different points within the marked area of drug administration. Skin contraction, avoidance, and other behaviors following stimulation were observed and recorded. Three points in the center and three points around the circle were stimulated, and the number of skin contraction and avoidance behaviors was recorded as N6. […] Each compound was tested on 10 rats.

[3] = 2 mg/ml, 5 ml/kg, single injection near the sciatic nerve of the rat, hot plate 50±0.1° C.

Row | Compound | Duration/h [1, 3] [h] | Onset Time/min [1, 3] | Duration/h [2] [h] | Onset Time/min [2] [min] | the rat died, time after administration ([1]; 2 mg/ml, 5 ml/kg, single injection near the sciatic nerve) | Duration/h ([1]; rat, in vivo) | Onset Time/min ([1]; rat, in vivo)
1 | CCCC[N+]1(CCCCOc2cccc(C#N)c2)CCCC[C@H]1C(=O)Nc1c(C)cccc1C (stereo partly drawn) [Compound of Example 27, (2S)-1-Butyl-1-(4-(3-cyanophenoxy)butyl)-2-((2,6-dimethylphenyl)carbamoyl)piperidine bromide] | 24 to 48 | 1 min | 48 to 72 | 1 |  |  | 
2 | CCCC[N+]1(CCCCCN2CCn3cccc3C2c2ccccc2)CCCC[C@H]1C(=O)Nc1c(C)cccc1C (stereo partly drawn) [Compound of Example 13, (2S)-1-Butyl-2-((2,6-dimethylphenyl)carbamoyl)-1-(5-1-phenyl-3,4-dihydropyrrolo[1,2-a]pyrazin-2(1H)-yl)pentyl)piperidine bromide] | 24 to 48 | 1 min | 48 to 72 | 1 |  |  | 
3 | CCCC[N+]1(CCOCCOc2ccccc2)CCCC[C@H]1C(=O)Nc1c(C)cccc1C (stereo partly drawn) [Comparative Example 1, (2S)-1-Butyl-2-((2,6-dimethylphenyl)carbamoyl)-1-(2-(2-phenoxyethoxy)ethyl)piperidine bromide, reference compound] |  |  |  |  | 1 (the rat died 4 h | 1 (the rat died 4 h | 2 min
4 | CCCC[N+]1(CCCCOc2cc(F)ccc2N)CCCC[C@H]1C(=O)Nc1c(C)cccc1C (stereo partly drawn) [Compound of Example 6, (2S)-1-(4-(2-amino-5-fluorophenoxy)butyl)-1-butyl-2-((2,6-dimethylphenyl)carbamoyl) piperidine bromide] | 24 to 48 | 1 min | 48 to 72 | 1 |  |  | 
5 | CCCC[N+]1(CCCCCNc2ccccc2)CCCC[C@H]1C(=O)Nc1c(C)cccc1C (stereo partly drawn) [Compound of Example 7, (2S)-1-Butyl-2-((2,6-dimethylphenyl)carbamoyl)-1-(5-(phenylamino)pentyl)piperidine bromide] |  |  | 48 to 72 | 2 |  | 24 to 48 h | 2 min
6 | CCCC[N+]1(CCCCNc2ccccc2)CCCC[C@H]1C(=O)Nc1c(C)cccc1C (stereo partly drawn) [Compound of Example 1, (2S)-1-Butyl-2-((2,6-dimethylphenyl)carbamoyl)-1-(4-(phenylamino)butyl)piperidine bromide] |  |  | 48 to 72 | 1 |  | 24 to 48 h | 1 min
7 | CCCC[N+]1(CCCCOc2ccc(C)cc2)CCCC[C@H]1C(=O)Nc1c(C)cccc1C (stereo partly drawn) [Compound of Example 31, (2S)-1-Butyl-2-((2,6-dimethylphenyl)carbamoyl)-1-(4-(p-tolyloxy)butyl)piperidine bromide] | 24 to 30 | 1 min | 48 to 72 | 1 |  |  | 
8 | CCCC[N+]1(CCCOc2ccccc2)CCCC[C@H]1C(=O)Nc1c(C)cccc1C (stereo partly drawn) [Compound of Example 34, (2S)-1-Butyl-2-((2,6-dimethylphenyl)carbamoyl)-1-(3-phenoxypropyl)piperidine bromide] |  |  |  |  |  | 0 h | No effect observed
9 | CCCC[N+]1(CCCCCN2CCn3ccnc3C2)CCCC[C@H]1C(=O)Nc1c(C)cccc1C (stereo partly drawn) [Compound of Example 11, (2S)-1-Butyl-1-(5-(5,6-dihydroimidazo[1,2-a]pyrazin-7(8H)-yl)pentyl)-2-((2,6-dimethylphenyl)carbamoyl)piperidine bromide] | 24 to 48 | 1 min | 48 to 72 | 1 |  |  | 
10 | CCCC[N+]1(CCCCOc2ccccc2)CCCC[C@H]1C(=O)Nc1c(C)cccc1C (stereo partly drawn) [Compound of Example 4, (2S)-1-Butyl-2-((2,6-dimethylphenyl)carbamoyl)-1-(4-(phenoxy)butyl)piperidine bromide] |  |  | 72 to 96 | 1 |  | 48 to 72 h | 1 min
11 | CCCC[N+]1(CCCCCOc2ccccc2)CCCC[C@H]1C(=O)Nc1c(C)cccc1C (stereo partly drawn) [Compound of Example 14, (2S)-1-Butyl-2-((2,6-dimethylphenyl)carbamoyl)-1-(5-(phenoxy)pentyl)piperidine bromide] |  |  | 48 to 72 | 2 |  | 24 to 48 h | 2 min
12 | CCCC[N+]1(CCCCCOc2cc(F)ccc2N)CCCC[C@H]1C(=O)Nc1c(C)cccc1C (stereo partly drawn) [Compound of Example 16, (2S)-1-(5-(2-amino-5-fluorophenoxy)pentyl)-1-butyl-2-((2,6-dimethylphenyl)carbamoyl)piperidine bromide] | 24 to 48 | 1 min | 48 to 72 | 1 |  |  | 
13 | CCCC[N+]1(CCCCOc2cccc(C)c2)CCCC[C@@H]1C(=O)Nc1c(C)cccc1C.[Cl-] (stereo partly drawn) [Compound of Example 29, (2R)-1-Butyl-2-((2,6-dimethylphenyl)carbamoyl)-1-(4-(m-tolyloxy)butyl)piperidine chloride] | 24 to 30 | 1 min |  |  |  |  | 
14 | CCCC[N+]1(CCCCNc2ccc(Cl)cc2)CCCC[C@H]1C(=O)Nc1c(C)cccc1C (stereo partly drawn) [Compound of Example 20, (2S)-1-Butyl-1-(4-((4-chlorophenyl)amino)butyl)-2-((2,6-dimethylphenyl)carbamoyl)piperidine bromide] |  |  |  |  |  | 24 to 48 h | 1 min
15 | CCCC[N+]1(CCCCOc2cccc(C)c2)CCCC[C@H]1C(=O)Nc1ccccc1C (stereo partly drawn) [Compound of Example 41, (2S)-1-Butyl-2-(o-tolylcarbamoyl)-1-(4-(m-tolyloxy)butyl)piperidinebromide] |  |  |  |  |  | 2 to 24 h | 2 min
16 | CCCC[N+]1(CCCCNc2c(C)cc(C)cc2C)CCCC[C@H]1C(=O)Nc1c(C)cccc1C (stereo partly drawn) [Compound of Example 19, (2S)-1-Butyl-2-((2,6-dimethylphenyl)carbamoyl)-1-(4-(symmetricaltrimethylamino)butyl)piperidine bromide] | 2 to 18 | 2 min |  |  |  |  | 
17 | CCCC[N+]1(CCCCOc2ccc3cc(C(C)=O)ccc3c2)CCCC[C@H]1C(=O)Nc1c(C)cccc1C (stereo partly drawn) [Compound of Example 43, (2S)-1-(4-((6-acetylnaphth-2-yl)oxy)butyl)-1-butyl-2-((2,6-dimethylphenyl)carbamoyl) piperidine bromide] | 48 to 72 | 1 min |  |  |  |  | 
18 | CCCC[N+]1(CCCCOc2cc(C)ccc2C(C)C)CCCC[C@H]1C(=O)Nc1c(C)cccc1C (stereo partly drawn) [Compound of Example 23, (2S)-1-Butyl-2-((2,6-dimethylphenyl)carbamoyl)-1-(4-(2-isopropyl-5-methylphenoxy)butyl) piperidine bromide] | 48 to 72 | 1 min |  |  |  |  | 
19 | CCCC[N+]1(CCCCOc2cccc(C)c2)CCCC[C@H]1C(=O)Nc1c(CC)cccc1CC (stereo partly drawn) [Compound of Example 42, (2S)-1-Butyl-2-((2,6-diethylphenyl)carbamoyl)-1-(4-(m-tolyloxy)butyl)piperidine bromide] |  |  |  |  |  | 2 to 24 h | 2 min
20 | CCCC[N+]1(CCCOc2cccc(C)c2)CCCC[C@H]1C(=O)Nc1c(C)cccc1C (stereo partly drawn) [Compound of Example 35, (2S)-1-Butyl-2-((2,6-dimethylphenyl)carbamoyl)-1-(3-(m-tolyloxy)propyl)piperidine bromide] | 0 | No effect observed |  |  |  |  | 
21 | Cc1cccc(C)c1NC(=O)[C@@H]1CCCC[N+]1(CCCCOc1ccccc1)CC(C)C (stereo partly drawn) [Compound of Example 37, (2S)-1-(Isobutylmethyl)-2-((2,6-dimethylphenyl)carbamoyl)-1-(4-phenoxybutyl)piperidine bromide] |  |  |  |  |  | 2 to 18 h | 2 min
22 | CCCC[N+]1(CCCCNc2ccc(F)c(F)c2)CCCC[C@H]1C(=O)Nc1c(C)cccc1C.[Br-] (stereo partly drawn) [Compound of Example 21, (2S)-1-Butyl-1-(4-((3,4-difluorophenyl)amino)butyl)-2-((2,6-dimethylphenyl)carbamoyl) piperidine bromide] | 19 to 24 | 1 min |  |  |  |  | 
